Key:
[1] = system: L. (L.) infantum chagasi amastigotes; set-up: method as in PMID 25909893; conditions: 10 μM; cited from earlier work
[2] = system: L. (L.) infantum chagasi; experiment: Liver parasite load (LDU) in infected BALB/c mice after chemotherapy; format: in vivo; conditions: 2.5 mg/kg/day ip 5 days; day 30 after complete treatment
Description: (§1) Female BALB/c mice, 8 week old, were infected through the caudal vein with 10^7 amastigotes of L. (L.) infantum (strain IOC-L 3324) isolated from infected hamsters spleens. After 15 days of infection, mice (n = 5 per treatment) were injected by the intraperitoneal route (ip) with daily doses for 5 days of 2.5 mg/Kg of IA, IH, SMIH [30, 31] or the control drug Glucantime (Sanofi Aventis, batch 0929280802) (Fig 1). Immucillins were synthesized at the Ferrier Research Institute, Victoria University of Wellington, New Zealand. Uninfected and infected mice treated only with saline were included as controls for the treatment cohorts. On days 1, 15, and 30 after complete treatment, the animals were euthanized with CO2. Blood samples were collected for sera analysis and weight of spleens, livers and total body were determined. Spleens were also used for determination of cytokine expression. The parasite load was evaluated in Giemsa-stained liver smears and expressed in LDU values (Leishman Donovan units of Stauber = number of amastigotes per 1000 liver cell nuclei/mg of liver weight). The levels of urea, creatinine, glutamate pyruvate transaminase (GPT) and glutamate oxaloacetate transaminase ([…]) were assessed in plasma by standard clinical laboratory procedures using a Wiener lab Metrolab 2300 (Laborlife Análises Clínicas laboratory, Rio de Janeiro).

[3] = system: CD4+, CD8+ and CD19+ lymphocytes; experiment: CD4+, CD8+ and CD19+ lymphocyte frequencies by flow cytometry in splenocytes of uninfected treated mice; format: cell-based, BALB/c mice
Description: Female BALB/c mice, 8 weeks old, were injected intraperitoneally with daily doses 2.5 mg/Kg of IA, IH, SMIH or Glucantime during five days and euthanized on day 1, 15 and 30 after complete treatment. For evaluation of the T cell response, spleens were removed and splenocytes were incubated for 24 h in vitro with the lysate of 10^6 stationary phase promastigotes of L. (L.) infantum chagasi (MHOM/BR/1974/PP75), with 25 μg/mL NH36, at 37°C and 5% CO2, during 72 h for the assay of the cytokine expression in the supernatants. Additionally, splenocytes from uninfected BALB/c mice either untreated or previously treated with IA, IH, SMIH or Glucantime were incubated in vitro with 10 μg/mL of each respective drug. For flow cytometry analysis (FACS analysis), splenocytes were incubated for 24 h with the antigens or drugs, labeled with anti-CD4FITC (clone GK1.5), anti-CD8FITC (clone 53–6.7) monoclonal antibodies (R&D systems, Inc) or with rat anti-mouse CD19-PerCP-Cy5.5 and 100,000 lymphocyte counts were acquired using a BD FACScalibur apparatus. Data was analyzed using the Flow-Jo program. The secretion of cytokines was evaluated in the supernatants of splenocytes by an ELISA assay.

[4] = system: L. (L.) infantum chagasi infection; experiment: Survival, body and organ weights of infected treated BALB/c mice; format: in vivo; conditions: end of the experiment
Description: as §1

[5] = system: macrophage; set-up: method as in PMID 25909893; conditions: 10 μM; cited from earlier work
[6] = system: L. (L.) infantum chagasi promastigotes; set-up: method as in PMID 25909893; conditions: cited from earlier work
[7] = system: L. (L.) infantum chagasi; experiment: Liver parasite load in infected CB hamsters after chemotherapy; format: in vivo, CB golden hamster; conditions: 2.5 mg/kg/day ip 5 days, 10 days after complete treatment
Description: (§2) The efficacy of immucillins was also assayed in the CB golden hamster susceptible model. Females, 8 weeks old, were infected through the intracardiac route with 2 x 10^7 amastigotes of L. (L.) infantum chagasi (strain IOC-L 3324) isolated from infected hamsters spleens. Thirty days after infection, the animals were treated with 2.5 mg/kg daily doses of Glucantime, IA, IH or SMIH, through the ip route, for five days. Ten days after complete treatment the animals were euthanized, their parasite load was determined in livers and the renal function evaluated in sera samples as described above.

[8] = Body weight and renal/hepatic markers in sera of infected treated hamsters; format: in vivo, CB golden hamster; conditions: infected hamsters
Description: as §2

[9] = system: L. (L.) amazonensis promastigotes; set-up: method as in PMID 25909893; conditions: cited from earlier work
[10] = system: blood PNP; set-up: method as in PMID 19170524; conditions: mice; cited from earlier work

O=c1[nH]cnc2c(CNC(CO)CO)c[nH]c12 [SMIH]
inhibition of intracellular replication of amastigotes [1]: 95%
reduction of liver parasite load (LDU) [2]: 85%
CD4+ T cell frequencies (in words) [3]: lower CD4+ T cell frequencies
CD19 B cell frequencies enhanced by previous treatment [3]: ~ 30%
CD8+ T cell frequencies ([3]; day 1 after treatment): diminished
survival [4]: 100%
damage to macrophage viability [5]: no apparent damage
concentrations inhibiting growth of promastigotes in vitro [6]: nanomolar to micromolar
liver parasite load reduction [7]: no cure
reduction of blood urea levels [8]: ~ 50%
concentrations inhibiting growth of promastigotes in vitro [9]: nanomolar to micromolar
oral availability [10]: orally available

— PMC4689457, “Immucillins ImmA and ImmH Are Effective and Non-toxic in the Treatment of Experimental Visceral Leishmaniasis” (PLoS Neglected Tropical Diseases, 2015)
